Positions count from the first letter of the chain named.
Legend:
Format in all cases: cell-based
α-Gal A mutant form D33H = molecular target: T1, α-Gal A mutant form D33H (Homo sapiens, UniProt P06280, D33H); assay: α-Gal A activity in lysates of transfected HEK-293 cells, D33H
T1 construct: expressed in transfected cells; host or cells: HEK-293
T1 sequence (P06280 32-429 D33H): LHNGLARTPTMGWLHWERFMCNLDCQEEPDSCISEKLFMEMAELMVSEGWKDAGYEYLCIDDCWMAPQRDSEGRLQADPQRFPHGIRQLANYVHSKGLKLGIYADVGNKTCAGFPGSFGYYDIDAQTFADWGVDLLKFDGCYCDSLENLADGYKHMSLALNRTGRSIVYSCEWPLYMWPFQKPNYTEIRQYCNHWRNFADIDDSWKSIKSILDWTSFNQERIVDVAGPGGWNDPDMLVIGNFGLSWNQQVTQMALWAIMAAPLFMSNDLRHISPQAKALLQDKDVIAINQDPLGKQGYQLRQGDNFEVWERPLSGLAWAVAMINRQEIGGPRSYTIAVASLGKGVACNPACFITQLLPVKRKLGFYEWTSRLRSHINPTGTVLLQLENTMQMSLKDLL
Description: (§1) Baseline and 10 μM migalastat α-Gal A activity: Differences in the α-Gal A activity between lysates incubated in the absence and presence of 10 μM migalastat were determined using a one-tailed, Mann Whitney U test; an increase at 10 μM migalastat with a p<0.05 was considered significant.
(§2) 10 μM migalastat α-Gal A activity (% WT)=(α-Gal A activity in mutant transfected cell lysates incubated with 10 μM migalastat÷α-Gal A activity in wild-type transfected cell lysates without migalastat)*100.
(§3) Absolute increase (% WT)=is the 10 μM migalastat α-Gal A activity (% WT) minus the baseline α-Gal A activity (% WT).
(§4) Relative increase is the 10 μM migalastat α-Gal A activity in mutant transfected cell lysates÷baseline α-Gal A activity in mutant transfected cell lysates incubated without migalastat.

α-Gal A mutant form Y88S = molecular target: T2, α-Gal A mutant form Y88S (Homo sapiens, UniProt P06280, Y88S); assay: α-Gal A activity in lysates of transfected HEK-293 cells, Y88S; conditions: Y-88S
T2 construct: expressed in transfected cells; host or cells: HEK-293
T2 sequence (P06280 32-429 Y88S): T1 sequence (P06280 32-429 D33H) with H2D, Y57S
Description: as §1, §2, §3, §4

[1] = molecular target: T3, α-Gal A mutant form Y216S (Homo sapiens, UniProt P06280, Y216S); assay: α-Gal A activity in lysates of transfected HEK-293 cells, Y216S
T3 construct: expressed in transfected cells; host or cells: HEK-293
T3 sequence (P06280 32-429 Y216S): T1 sequence (P06280 32-429 D33H) with H2D, Y185S
Description: as §1, §2, §3, §4

[2] = molecular target: T4, α-Gal A mutant form R392T (Homo sapiens, UniProt P06280, R392T); assay: α-Gal A activity in lysates of transfected HEK-293 cells, R392T
T4 construct: expressed in transfected cells; host or cells: HEK-293
T4 sequence (P06280 32-429 R392T): T1 sequence (P06280 32-429 D33H) with H2D, R361T
Description: as §1, §2, §3, §4

[3] = molecular target: T5, α-Gal A mutant form N320H (Homo sapiens, UniProt P06280, N320H); assay: α-Gal A activity in lysates of transfected HEK-293 cells, N320H
T5 construct: expressed in transfected cells; host or cells: HEK-293
T5 sequence (P06280 32-429 N320H): T1 sequence (P06280 32-429 D33H) with H2D, N289H
Description: as §1, §2, §3, §4

[4] = 10 μM migalastat minus baseline
[5] = 10 μM migalastat ÷ baseline activity
[6] = HEK-293 lysates, 10 nM migalastat as printed, 5 days, mean ± SEM
[7] = HEK-293 lysates, 10 μM migalastat, 5 days, mean ± SEM

Absolute increase (% WT) (α-Gal A mutant form D33H; [4]): 32.7 % WT
Relative increase (α-Gal A mutant form D33H; [5]): 1.93
10 nM migalastat α-Gal A activity (α-Gal A mutant form D33H; [6]): 24908 ± 1775 nmol/mg/h
10 μM migalastat α-Gal A activity (% WT) (α-Gal A mutant form D33H; [7]): 68.8 ± 4.3 % WT
Absolute increase (% WT) (α-Gal A mutant form Y88S; [4]): 10.3 % WT
Relative increase (α-Gal A mutant form Y88S; [5]): 3.67
10 nM migalastat α-Gal A activity (α-Gal A mutant form Y88S; [6]): 5542 ± 376 nmol/mg/h
10 μM migalastat α-Gal A activity (% WT) (α-Gal A mutant form Y88S; [7]): 14.1 ± 1.3 % WT
Absolute increase (% WT) [1, 4]: 32.7 % WT
Relative increase [1, 5]: 17.70
10 nM migalastat α-Gal A activity [1, 6]: 11238 ± 751 nmol/mg/h
10 μM migalastat α-Gal A activity (% WT) [1, 7]: 34.7 ± 1.8 % WT
Absolute increase (% WT) [2, 4]: 21.3 % WT
Relative increase [2, 5]: 1.22
10 nM migalastat α-Gal A activity [2, 6]: 36679 ± 1896 nmol/mg/h
10 μM migalastat α-Gal A activity (% WT) [2, 7]: 125.9 ± 6.2 % WT
Absolute increase (% WT) [3, 4]: 32.2 % WT
Relative increase [3, 5]: 2.59
10 μM migalastat α-Gal A activity [3, 7]: 22149 ± 1050 nmol/mg/h
10 μM migalastat α-Gal A activity (% WT) [3, 7]: 52.9 ± 3.1 % WT
Structure (SMILES): OC[C@H]1NC[C@H](O)[C@@H](O)[C@H]1O [migalastat, (2R,3S,4R,5S)-2-(hydroxymethyl) piperdine-3,4,5-triol]
